# Tests used:
# Test in all cases: relative viability (nuclei count vs DMSO), 5 days (fraction); higher = more cells survive
# [1] = compound: CC1=CC(=NN1)NC2=CC(=NC(=N2)/C=C/C3=CC=CC=C3)N4CCN(CC4)C + O=C(c1cc(Cc2n[nH]c(=O)c3ccccc23)ccc1F)N1CCN(C(=O)C2CC2)CC1 [Olaparib] (partner 8 µM)
# Method in brief: (§1)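 Nuclei were stained with Hoechst during a one-step fixation (final 0.05% Triton X-100, 1% formaldehyde, 1 ug/ml Hoechst) carried out 5 days after dosing, then counted on 4× images. The cells, lung cancer lines in 1536-well plates, had been dosed by pin tool the day after seeding with one drug alone or a fixed anchor-drug dose plus five library-drug doses (not always all listed) in √10 steps. Relative viability is the nuclei count in treated wells divided by that in vehicle wells, and each value is the median of duplicate plates.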
# [2] = compound: CC1=CC(=NN1)NC2=CC(=NC(=N2)/C=C/C3=CC=CC=C3)N4CCN(CC4)C + Cc1cc(Nc2cc(N3CCN(C)CC3)nc(Sc3ccc(NC(=O)C4CC4)cc3)n2)n[nH]1 [Tozasertib] (partner 0.1 µM)
# Method in brief: as §1
# Bortezomib + Tozasertib = compound: CC(C)C[C@H](NC(=O)[C@H](Cc1ccccc1)NC(=O)c1cnccn1)B(O)O [Bortezomib] + Cc1cc(Nc2cc(N3CCN(C)CC3)nc(Sc3ccc(NC(=O)C4CC4)cc3)n2)n[nH]1 [Tozasertib] (partner 0.1 µM)
# Method in brief: as §1
# Obatoclax + Trametinib = compound: COC1=CC(c2cc3ccccc3[nH]2)=N/C1=C\c1[nH]c(C)cc1C [Obatoclax] + CC(=O)Nc1cccc(-n2c(=O)n(C3CC3)c(=O)c3c(Nc4ccc(I)cc4F)n(C)c(=O)c(C)c32)c1 [Trametinib] (partner 0.02 µM)
# Method in brief: as §1
Cell Line,relative viability ([1]; first compound 0.08 µM),relative viability ([1]; first compound 0.253 µM),relative viability ([1]; first compound 0.8 µM),relative viability ([1]; first compound 2.53 µM),relative viability ([1]; first compound 8 µM),relative viability ([2]; first compound 0.08 µM),relative viability ([2]; first compound 0.253 µM),relative viability ([2]; first compound 0.8 µM),relative viability ([2]; first compound 2.53 µM),relative viability ([2]; first compound 8 µM),relative viability (Bortezomib + Tozasertib; first compound 0.0002 µM),relative viability (Bortezomib + Tozasertib; first compound 0.000632 µM),relative viability (Bortezomib + Tozasertib; first compound 0.002 µM),relative viability (Bortezomib + Tozasertib; first compound 0.006325 µM),relative viability (Bortezomib + Tozasertib; first compound 0.02 µM),relative viability (Obatoclax + Trametinib; first compound 0.01 µM),relative viability (Obatoclax + Trametinib; first compound 0.03162 µM),relative viability (Obatoclax + Trametinib; first compound 0.1 µM),relative viability (Obatoclax + Trametinib; first compound 0.3162 µM),relative viability (Obatoclax + Trametinib; first compound 1 µM)
HCC-78,0.732,0.902,0.903,0.673,0.29,0.365,0.427,0.352,0.304,0.253,0.488,0.331,0.41,0.236,0.209,0.774,0.717,1.03,0.547,0.898
HCC-366,0.332,0.39,0.24,0.0237,0.0171,0.0833,0.0907,0.0487,0.032,0.0245,0.13,0.115,0.094,0.0548,0.0273,0.348,0.323,0.321,0.245,0.228
HCC-827,0.605,0.622,0.708,0.62,0.263,0.404,0.375,0.422,0.355,0.236,0.418,0.447,0.419,0.12,0.0981,0.523,0.512,0.734,0.475,0.595
HOP-62,0.366,0.521,0.436,0.395,0.194,0.354,0.366,0.377,0.261,0.18,0.354,0.391,0.292,0.0719,0.0538,0.406,0.318,0.389,0.388,0.408
IA-LM,0.839,0.899,0.981,1.02,0.174,,,,,,,,,,,,,,,
LC-2-ad,0.692,0.687,0.704,0.471,0.164,0.45,0.409,0.358,0.224,0.204,0.447,0.477,0.328,0.217,0.199,0.954,0.859,0.885,0.905,0.969
LCLC-97TM1,0.258,0.565,0.323,0.214,0.0672,0.235,0.132,0.23,0.145,0.126,0.289,0.204,0.25,0.131,0.14,0.224,0.177,0.203,0.193,0.194
LCLC-103H,0.775,0.846,0.716,0.668,0.481,0.451,0.484,0.389,0.232,0.191,,0.485,0.251,0.147,0.128,0.64,0.702,0.63,0.678,0.694
LK-2,0.699,0.772,0.684,0.29,0.0845,0.187,0.153,0.165,0.171,0.171,0.182,0.191,0.173,0.157,0.161,0.846,0.794,1.02,0.783,0.914
LOU-NH91,0.871,0.958,0.926,0.875,0.385,0.713,0.719,0.707,0.482,0.308,0.643,0.7,0.32,0.224,0.166,0.766,0.784,0.717,0.723,0.592
LU99A,0.275,0.244,0.266,0.182,0.103,0.325,0.259,0.262,0.175,0.141,0.279,0.29,0.247,0.252,0.17,0.598,0.55,,0.631,0.557
LXF-289,1.05,1.04,0.87,0.411,0.055,0.192,0.142,0.191,0.113,0.0447,0.166,0.183,0.157,0.0616,0.046,0.642,0.663,0.671,0.707,0.671
NCI-H23,0.303,0.325,0.224,0.134,0.108,0.389,0.382,0.239,0.212,0.141,0.306,0.366,0.352,0.111,0.107,0.384,0.442,0.451,0.357,0.363
NCI-H322M,0.662,0.762,0.742,0.486,0.281,0.509,0.521,0.506,0.3,0.229,0.468,,0.442,0.278,0.308,0.547,0.482,0.71,0.535,0.669
NCI-H358,0.505,0.644,0.486,0.209,0.068,0.103,0.103,0.0892,0.089,0.0711,0.101,0.114,0.103,0.0691,0.0756,0.129,0.127,0.165,0.135,0.114
NCI-H1299,0.961,0.924,0.975,0.616,0.167,,,,,,,,,,,,,,,
NCI-H1623,,,,,,0.4,0.441,0.414,0.397,0.342,0.425,0.52,0.46,0.316,0.199,,,,,
NCI-H1703,0.355,0.392,0.167,0.168,0.0731,,,,,,,,,,,,,,,
NCI-H1792,0.437,0.501,0.431,0.374,0.031,,,,,,,,,,,0.365,0.302,0.417,0.509,0.411

# — the supplement of paper PMC10307832
